Laboratory results published in ChEMBL document CHEMBL1159384, “Antidiabetic dimeric guianolides and a lignan glycoside from Lactuca indica” (2003).

System: Rattus norvegicus
Assay: Antidiabetic activity in STZ-diabetic rat assessed as lowering of plasma glucose level at 1 mM/kg
Format: functional

Row | Compound | Activity [%]
1 | C=C1C(=O)O[C@@H]2[C@H]3C(COC(=O)Cc4ccc(O)cc4)=CC(=O)C3=C(C)C[C@H](O[C@H]3CC(C)=C4C(=O)C=C(COC(=O)Cc5ccc(O)cc5)[C@@H]4[C@H]4OC(=O)[C@@H](C)[C@@H]43)[C@@H]12 [LACTUCAIN C] | -22.74
2 | COc1cc([C@H]2O[C@@H](O)[C@@H]3[C@H]2[C@H](O[C@@H]2O[C@H](CO)[C@@H](O)[C@H](O)[C@H]2O)O[C@@H]3c2ccc(O)c(OC)c2)ccc1O [LACTUCASIDE] | -17.95
